From patent EP0402469B1, “CATECHOL COMPOUNDS, PROCESS FOR THEIR PREPARATION AND PHARMACEUTICAL PREPARATION CONTAINING SAME” (TERUMO KABUSHIKI KAISHA, priority 1988, dated 1989)

Tested on: Wistar type male rat
Test: Activity to resist growth of ulcer (ethanol hydrochloric acid induced gastric injury)
Format: in vivo
Details: 30mg/kg orally, 1 hour before oral ethanol hydrochloric acid, ulcer index 1 hour later
Experimental: A Wistar type male rat (body weight 150 to 200 g) was fasted for 24 hours, then orally administered with a catechol compound according with the present invention and, on elapse of 1 hour thereafter, orally administered with ethanol hydrochloric acid (having 150 mM hydrochloric acid contained in 60% ethanol) at a rate of 0.5 ml/100 g of body weight.
After 1 hour following the oral administration of ethanol hydrochloric acid, the rat was sacrified with ether. The stomach was excited from the corpse, treated with formalin, and visually examined to measure lengths of injuries generated on the glanular part of the stomach. The total of injuries was reported as an ulcer index of the rat in question.
The term "ratio of inhibiting formation of ulcer (%)" as used in the table refers to a numerical value obtained by subtracting the ulcer index of a rat orally administered with a given catechol compound according with the present invention from the ulcer index of a rat not orally administered with catechol compound and multiplying the difference by 100.

Structure (SMILES)	Ratio of inhibiting formation of ulcer (%)
CCCCCCCCCC(O)CC(=O)CCc1ccc(O)c(O)c1 (stereo not drawn) [Example 4, 1-(3,4-hydroxyphenyl)-5-hydroxytetradecan-3-one]	84.4%

Same assay, conditions: 30mg/kg orally, 1 hour before oral ethanol hydrochloric acid, ulcer index 1 hour later, read-out: Ratio of inhibiting formation of ulcer (%)

Structure (SMILES)	inhibition in vivo at 30 mg/kg
CCCCCCCCCC(=O)CC(=O)C=Cc1ccc(O)c(O)c1 [Example 1, 1-(3,4-dihydroxyphenyl)-1-tetradecen-3,5-dione]	82.4%
CCCCCC(=O)CC(=O)C=Cc1ccc(O)c(O)c1 [Example 9, 1-(3,4-dihydroxyphenyl)-1-decen-3,5-dione]	77.9%
CCCCCCCC(=O)CC(=O)C=Cc1ccc(O)c(O)c1 [Example 7, 1-(3,4-dihydroxyphenyl)-1-dodecen-3,5-dione]	85.7%
CCCCCCCCCC(=O)CC(=O)CCc1ccc(O)c(O)c1 [Example 2, 1-(3,4-dihydroxyphenyl)-3,5-tetradecane dione]	92.1%
CCCC(=O)CC(=O)CCc1ccc(O)c(O)c1 [Example 12, 1-(3,4-dihydroxyphenyl)-3,5-octadione]	81.8%
CCCCCC(=O)CC(=O)CCc1ccc(O)c(O)c1 [Example 10, 1-(3,4-dihydroxyphenyl)-3,5-decane dione]	84.6%
CCCCCCCC(=O)CC(=O)CCc1ccc(O)c(O)c1 [Example 8, 1-(3,4-dihydroxyphenyl)-3,5-dodecane dione]	88.3%
CCCC(=O)CC(=O)C=Cc1ccc(O)c(O)c1 [Example 11, 1-(3,4-dihydroxyphenyl)-1-octen-3,5-dione]	58.7%
